{"source": "patent US20190374650A1", "about": "“COMPOSITIONS AND METHODS FOR DELIVERY OF POLYMER/BIOMACROMOLECULE CONJUGATES” (THE REGENTS OF THE UNIVERSITY OF MICHIGAN, priority 2017, published 2019)", "key": {"[1]": {"system": "MC38 tumors", "experiment": "In vivo cancer immunotherapy against established MC38 tumors: tumor volume and survival", "design": "species or system C57BL/6 mice", "conditions": "three weekly intratumoral injections", "method": "(§1) C57BL/6 mice were subcutaneously injected with 5×10^5 MC38 colon carcinoma cells (a gift from W. Zou, University of Michigan) into the right flank and randomly sorted for treatment after 9 days when the tumor volumes reached approximately 50-70 mm^3. Fifty μl PBS solution of ASMTNMELM, CpG, ASMTNMELM+CpG, PEI-SS-CSSASMTNMELM+CpG (10 μg ASMTNMELM and 15 μg CpG), or blank PBS (50 μl) were directly injected into tumor every week for total three times. PBMCs were collected on day 7 after the first sample injection and tetramer staining was performed for flow cytometric analysis of neo-antigen-specific CD8+ T cells. The sizes of the tumors were measured every three days using a digital caliper, and the tumor volume was estimated by ellipsoidal calculation as V=(width)^2×length×π/6. The mice were euthanized when the tumors reached the maximum permitted size (1.5 cm in any dimension) or ulcerations occurred."}, "[2]": {"system": "neo-antigen-specific CD8+ T cells", "experiment": "Intratumoral injection into established MC38 tumors: tetramer staining of PBMCs", "type": "in vivo, C57BL/6 mice", "conditions": "MC38 tumor-bearing mice, day 7 after first injection", "method": "as §1"}, "[3]": {"system": "BMDCs", "experiment": "BMDC cytotoxicity (CCK-8 viability)", "type": "cell-based", "conditions": "24 h incubation, concentration as high as 100 μg/ml", "method": "(§2) BMDCs were plated at a density of 1×10^5 cells/well in 96 well plates in RPMI 1640 supplemented with 10% FBS and 1% PS, and incubated overnight at 37° C. under 5% CO2. For cytotoxicity assessment, cells were incubated with either free form (CSSASMNTMELM) or PEI conjugate (PEI-SS-CSSASMTNMELM) of the neo-antigen peptide for 24 h at concentrations of 1, 5, 10, 20, 50, 100 μg/ml. The viability was measured by adding CCK-8 to each well of the plate according to manufacturer's instruction followed by absorbance measurement at 450 nm using a microplate reader after 2 h incubation. Relative viability was calculated as to the ratio of the absorbance to the non-sample treated cells (0 μg/ml). To investigate BMDC activation, cells were treated with PBS or PEI-SS-CSSASMTNMELM, PBS+CpG, PEI-SS-CSSASMTNMELM+CpG (2 μg/ml PEI-SS-CSSASMTNMELM and 1 μg/ml CpG) for 2 h. The fresh cell culture media were placed after sample washing and collected for cytokine analysis after further 24 h incubation. The concentration of IL-12p70 in the media was measured using ELISA kit by following the manufacturer's instruction."}, "[4]": {"system": "BMDCs", "experiment": "BMDC activation: IL-12p70 secretion (ELISA)", "type": "cell-based", "conditions": "alone, w/o CpG; 2 μg/ml, 2 h", "method": "as §2"}, "[5]": {"system": "BMDCs", "experiment": "BMDC activation: expression of co-stimulatory markers CD86 and CD40 by flow cytometry", "type": "cell-based, C57BL/6 mice", "conditions": "conjugate alone, w/o CpG; 1% modification, 2 nmol SIINFEKL/ml, 24 h", "method": "(§3) Femur and tibia were harvested from C57BL/6 mice. Cells were collected by flushing bone marrow with a syringe, passing the cell suspension through a cell strainer (mesh size=40 μm), followed by centrifugation (200×g, 5 min). Cells were then seeded into non-tissue culture treated petri-dishes at a density of 2×10^6 cells/ml in DC culture media (RPMI 1640 supplemented with 10% FBS, 1% penicillin-streptomycin, 50 μM β-mercaptoethanol, and 20 ng/ml GM-CSF), cultured at 37° C. with 5% CO2. Culture media were refreshed on days 3, 6, and 8, and BMDCs were used on days 8-12.\n(§4) BMDCs were seeded at a density of 8×10^5 cells/ml into 12-well plates. Cells were incubated with PGA120k-MAL-CSSSIINFEKL or PGA120k-SS-CSSSIINFEKL (1% modification of carboxyl groups, 2 nmol SIINFEKL/ml) w/or w/o 0.5 μg/ml CpG in 1 ml BMDC culture media for 24 h. Cells were harvested, blocked with anti-CD16/32 at room temperature for 10 min, and then stained with anti-CD11c-PECy7, anti-CD40-APC, anti-CD86-PE, or anti-SIINFEKL-H-2K^b-PE at room temperature for 30 min. Finally, cells were washed and resuspended in 2 μg/ml DAPI solution and analyzed by a flow cytometer (Cyan 5, Beckman Coulter)."}, "[6]": {"system": "BMDCs", "experiment": "Antigen cross-presentation: presentation of SIINFEKL on DCs by flow cytometry", "type": "cell-based, C57BL/6 mice", "conditions": "2 nmol SIINFEKL/ml, 24 h", "method": "as §3, §4"}, "[7]": {"system": "OT-I T cells", "experiment": "Proliferation of antigen-specific CD8+ T cells in vitro (CFSE dilution)", "type": "cell-based, OT-I mice", "conditions": "BMDCs pre-activated 24 h, 0.5 nmol SIINFEKL/ml, in the presence of 0.5 μg/ml CpG; co-culture 3 days", "method": "SIINFEKL-specific CD8^+ T cells were isolated from OT-I mice using an EasySep™ Mouse CD8^+ T Cell Isolation Kit (STEMCELL Technologies, Cambridge, Mass.), and stained by CFSE. 5×10^4 BMDCs were seeded into 96-well plates, and incubated with PGA120k conjugates (1% modification of carboxyl groups, 0.5 nmol SIINFEKL/ml) w/or w/o 0.5 μg/ml CpG for 24 h. BMDCs were then washed by PBS, followed by co-culture with 5×10^4 CFSE-labeled OT-I T cells for 3 days. Cells were then harvested, blocked with anti-CD16/32, and stained with anti-CD8-APC on ice for 30 min. Cells were washed and resuspended in 2 μg/ml DAPI solution and analyzed for fluorescence dilutions of CFSE by flow cytometry."}}, "note": "Where no end group is shown, it is not given here.", "data": [{"substance": "5′-tccatgacgttcctgacgtt-3′ [CpG]", "values": [{"measurement": "survival rates", "setting": "[1]", "result": "~20", "unit": "%"}, {"measurement": "tumor progression", "setting": "[1]", "result": "slowed tumor progression"}, {"measurement": "neo-antigen-specific CD8+ T cell response", "setting": "[2]", "result": "failed to elicit"}]}, {"substance": "ASMTNMELM [neo-antigen]", "values": [{"measurement": "time by which all animals succumbed to tumors", "setting": "[1]", "result": "≤ 50", "unit": "days"}, {"measurement": "neo-antigen-specific CD8+ T cell response", "setting": "[2]", "result": "failed to elicit"}]}, {"substance": "CSSASMTNMELM [free peptide, CSSASMTNMELM]", "values": [{"measurement": "BMDC viability", "setting": "[3]", "result": "maintained their viability"}]}, {"substance": "PEI-SS-CSSASMTNMELM: PEI (MW 25,000), PEGylated, disulfide-linked via SPDP to neo-antigen peptide CSSASMTNMELM (PEGylated PEI disulfide-linked via SPDP)", "values": [{"measurement": "BMDC viability", "setting": "[3]", "result": "maintained their viability"}, {"measurement": "activation of BMDCs (secretion of IL-12p70)", "setting": "[4]", "result": "failed to induce activation of BMDCs"}]}, {"substance": "PGA-MAL-CSSSIINFEKL: 120 kD poly(L-glutamic acid) linked by non-sensitive maleimide-thiol bond to peptide CSSSIINFEKL, 1% modification of carboxyl groups (not fully specified; poly(L-glutamic acid) 120 kD maleimide-thiol conjugate)", "values": [{"measurement": "activation of DCs (expression of CD86 and CD40)", "setting": "[5]", "result": "failed to activate DCs"}]}, {"substance": "PGA-SS-CSSSIINFEKL: 120 kD poly(L-glutamic acid) linked by reduction-sensitive disulfide bond to peptide CSSSIINFEKL, 1% modification of carboxyl groups (not fully specified; poly(L-glutamic acid) 120 kD disulfide conjugate)", "values": [{"measurement": "presentation of SIINFEKL on DCs", "setting": "[6]; w/o CpG, compared with soluble peptide and PGA-MAL-CSSSIINFEKL", "result": "significantly higher presentation of SIINFEKL on DCs"}, {"measurement": "presentation of SIINFEKL on DCs", "setting": "[6]; with 0.5 μg/ml CpG", "result": "further increased by CpG"}, {"measurement": "CD40 expression in DCs", "setting": "[5]", "result": "slightly increased CD40 expression"}]}, {"substance": "SIINFEKL [soluble peptide, model antigen peptide]", "values": [{"measurement": "proliferation of OT-I T cells", "setting": "[7]", "result": "> 60", "unit": "%"}]}]}
